{"source": "ChEMBL document CHEMBL1201862", "about": "“PubChem BioAssay data set” (2004)", "key": {"[1]": {"target": "T1, Intestinal-type alkaline phosphatase (Homo sapiens, UniProt P09923)", "T1 sequence (P09923 whole entry)": "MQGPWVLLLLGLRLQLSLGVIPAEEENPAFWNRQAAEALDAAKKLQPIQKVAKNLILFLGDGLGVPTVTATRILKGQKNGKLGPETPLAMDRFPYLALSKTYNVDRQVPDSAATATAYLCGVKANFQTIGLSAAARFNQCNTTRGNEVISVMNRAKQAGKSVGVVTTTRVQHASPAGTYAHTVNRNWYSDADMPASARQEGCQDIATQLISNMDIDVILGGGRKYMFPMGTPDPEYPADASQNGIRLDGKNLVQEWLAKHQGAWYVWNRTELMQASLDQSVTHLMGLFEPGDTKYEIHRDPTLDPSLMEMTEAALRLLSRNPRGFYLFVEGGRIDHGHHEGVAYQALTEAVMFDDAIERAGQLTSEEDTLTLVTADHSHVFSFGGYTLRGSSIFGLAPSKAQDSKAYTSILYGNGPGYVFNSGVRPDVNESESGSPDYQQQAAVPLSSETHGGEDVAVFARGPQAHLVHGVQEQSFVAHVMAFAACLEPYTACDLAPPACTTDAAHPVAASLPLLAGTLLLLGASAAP", "assay": "Dose Response confirmation of uHTS hits from a small molecule inhibitors of human intestinal alkaline phosphatase via a luminescent assay. [Related pubchem assays (depositor defined):AID2544, AID2574]", "type": "functional"}, "[2]": {"target": "T1, Intestinal-type alkaline phosphatase", "assay": "human IAP inhibitors, dose response, biochemical, luminescent, uHTS hits, set 2 (AID 488793)", "type": "functional"}, "[3]": {"target": "Large T antigen (Simian virus 40, UniProt P03070)", "sequence (P03070 whole entry)": "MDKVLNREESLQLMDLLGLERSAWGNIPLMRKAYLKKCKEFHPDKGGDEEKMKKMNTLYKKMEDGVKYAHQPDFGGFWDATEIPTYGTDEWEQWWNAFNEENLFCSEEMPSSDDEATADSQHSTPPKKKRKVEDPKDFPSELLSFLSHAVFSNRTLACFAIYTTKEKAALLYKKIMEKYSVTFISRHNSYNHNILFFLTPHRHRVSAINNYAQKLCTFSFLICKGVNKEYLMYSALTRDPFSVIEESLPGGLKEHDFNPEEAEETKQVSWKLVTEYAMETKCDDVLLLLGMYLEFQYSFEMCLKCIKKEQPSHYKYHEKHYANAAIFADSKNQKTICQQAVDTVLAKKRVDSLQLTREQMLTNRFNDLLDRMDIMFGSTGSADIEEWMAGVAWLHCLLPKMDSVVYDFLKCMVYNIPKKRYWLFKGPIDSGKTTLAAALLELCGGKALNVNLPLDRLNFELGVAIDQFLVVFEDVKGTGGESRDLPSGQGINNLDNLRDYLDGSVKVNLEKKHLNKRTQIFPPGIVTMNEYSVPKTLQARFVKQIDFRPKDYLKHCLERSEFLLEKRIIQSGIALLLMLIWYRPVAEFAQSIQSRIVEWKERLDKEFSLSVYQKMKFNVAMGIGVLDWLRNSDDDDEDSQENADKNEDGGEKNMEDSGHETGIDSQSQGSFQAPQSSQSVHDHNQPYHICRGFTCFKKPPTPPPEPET", "type": "functional, Betapolyomavirus macacae"}, "[4]": {"target": "T2, Alkaline phosphatase, tissue-nonspecific isozyme (Homo sapiens, UniProt P05186)", "T2 sequence (P05186 whole entry)": "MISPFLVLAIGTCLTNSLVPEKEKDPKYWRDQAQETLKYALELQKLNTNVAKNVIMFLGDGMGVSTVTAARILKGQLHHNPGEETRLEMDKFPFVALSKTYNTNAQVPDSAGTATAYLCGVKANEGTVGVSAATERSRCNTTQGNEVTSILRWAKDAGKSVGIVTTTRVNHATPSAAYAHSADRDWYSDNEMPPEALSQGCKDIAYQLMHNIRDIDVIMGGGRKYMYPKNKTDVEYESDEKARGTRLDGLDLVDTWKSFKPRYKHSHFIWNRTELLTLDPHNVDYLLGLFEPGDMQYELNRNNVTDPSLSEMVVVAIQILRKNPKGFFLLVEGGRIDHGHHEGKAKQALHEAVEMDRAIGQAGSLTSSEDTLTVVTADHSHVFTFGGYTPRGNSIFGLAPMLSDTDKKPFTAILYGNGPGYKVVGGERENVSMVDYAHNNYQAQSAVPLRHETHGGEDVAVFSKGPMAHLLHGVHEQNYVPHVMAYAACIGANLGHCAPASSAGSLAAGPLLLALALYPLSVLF", "assay": "inhibition of tissue-nonspecific alkaline phosphatase – biochemical, dose response (AID 488882)", "type": "functional"}, "[5]": {"target": "T3, Intestinal-type alkaline phosphatase (Mus musculus, UniProt P24822)", "T3 sequence (P24822 whole entry)": "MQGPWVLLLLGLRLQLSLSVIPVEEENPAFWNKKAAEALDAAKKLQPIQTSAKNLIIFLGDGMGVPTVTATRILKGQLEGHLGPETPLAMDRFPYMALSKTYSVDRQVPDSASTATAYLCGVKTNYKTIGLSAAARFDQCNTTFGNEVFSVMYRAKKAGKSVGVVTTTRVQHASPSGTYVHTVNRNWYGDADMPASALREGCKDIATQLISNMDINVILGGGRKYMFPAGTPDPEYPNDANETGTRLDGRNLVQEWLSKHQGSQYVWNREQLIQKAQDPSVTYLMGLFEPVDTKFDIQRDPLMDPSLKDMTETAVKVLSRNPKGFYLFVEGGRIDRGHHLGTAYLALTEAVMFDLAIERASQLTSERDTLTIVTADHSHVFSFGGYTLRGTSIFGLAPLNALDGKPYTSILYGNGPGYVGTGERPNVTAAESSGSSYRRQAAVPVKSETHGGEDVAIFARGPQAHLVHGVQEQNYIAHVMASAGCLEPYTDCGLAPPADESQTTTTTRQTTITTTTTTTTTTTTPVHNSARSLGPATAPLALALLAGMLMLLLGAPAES", "assay": "PubChem AID 488874", "type": "functional"}, "[6]": {"target": "T4, Leucine aminopeptidase (Plasmodium falciparum 3D7, UniProt Q8IL11)", "T4 sequence (Q8IL11 whole entry)": "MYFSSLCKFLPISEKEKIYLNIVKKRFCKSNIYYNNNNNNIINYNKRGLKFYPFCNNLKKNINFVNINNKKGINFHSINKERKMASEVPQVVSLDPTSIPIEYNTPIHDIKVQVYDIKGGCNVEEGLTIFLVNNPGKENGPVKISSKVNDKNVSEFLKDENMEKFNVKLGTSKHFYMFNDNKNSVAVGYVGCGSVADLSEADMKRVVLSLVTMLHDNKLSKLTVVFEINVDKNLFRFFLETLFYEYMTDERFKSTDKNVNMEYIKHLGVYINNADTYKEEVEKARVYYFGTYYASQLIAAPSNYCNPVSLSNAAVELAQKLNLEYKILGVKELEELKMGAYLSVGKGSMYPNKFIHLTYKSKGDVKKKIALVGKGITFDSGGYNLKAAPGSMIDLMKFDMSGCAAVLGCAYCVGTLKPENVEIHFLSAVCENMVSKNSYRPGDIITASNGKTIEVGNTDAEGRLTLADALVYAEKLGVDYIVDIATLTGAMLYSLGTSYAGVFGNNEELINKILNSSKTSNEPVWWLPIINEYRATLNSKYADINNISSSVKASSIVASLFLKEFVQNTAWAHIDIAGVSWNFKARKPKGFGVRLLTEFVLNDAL", "assay": "P. falciparum M17LAP inhibitors, primary screen, biochemical, fluorogenic H-Leu-NHMec substrate, 1536-well (AID 1619)", "type": "functional"}, "[7]": {"target": "T5, Tumor necrosis factor (Homo sapiens, UniProt P01375)", "T5 sequence (P01375 whole entry)": "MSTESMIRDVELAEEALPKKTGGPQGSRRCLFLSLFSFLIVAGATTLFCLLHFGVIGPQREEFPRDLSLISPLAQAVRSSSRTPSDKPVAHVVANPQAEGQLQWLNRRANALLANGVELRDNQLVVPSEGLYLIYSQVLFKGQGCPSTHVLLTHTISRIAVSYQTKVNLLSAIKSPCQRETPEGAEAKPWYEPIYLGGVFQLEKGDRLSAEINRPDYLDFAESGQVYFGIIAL", "assay": "TNFa-triggered NF-kB activation inhibitors, SAR follow-up, cell-based, revised (AID 2337)", "type": "functional"}, "[8]": {"system": "HEK293", "assay": "SAR analysis of compounds that are cytotoxic to HEK293 - Set 3. [Related pubchem assays (depositor defined):AID1575, AID1578, AID1848, AID1849, AID2001, AID2333, AID2334, AID2335, AID2337, AID2469]", "type": "functional, cell-based", "conditions": "Homo sapiens"}, "[9]": {"target": "T6, Nucleotide-binding oligomerization domain-containing protein 1 (Homo sapiens, UniProt Q9Y239)", "T6 sequence (Q9Y239 whole entry)": "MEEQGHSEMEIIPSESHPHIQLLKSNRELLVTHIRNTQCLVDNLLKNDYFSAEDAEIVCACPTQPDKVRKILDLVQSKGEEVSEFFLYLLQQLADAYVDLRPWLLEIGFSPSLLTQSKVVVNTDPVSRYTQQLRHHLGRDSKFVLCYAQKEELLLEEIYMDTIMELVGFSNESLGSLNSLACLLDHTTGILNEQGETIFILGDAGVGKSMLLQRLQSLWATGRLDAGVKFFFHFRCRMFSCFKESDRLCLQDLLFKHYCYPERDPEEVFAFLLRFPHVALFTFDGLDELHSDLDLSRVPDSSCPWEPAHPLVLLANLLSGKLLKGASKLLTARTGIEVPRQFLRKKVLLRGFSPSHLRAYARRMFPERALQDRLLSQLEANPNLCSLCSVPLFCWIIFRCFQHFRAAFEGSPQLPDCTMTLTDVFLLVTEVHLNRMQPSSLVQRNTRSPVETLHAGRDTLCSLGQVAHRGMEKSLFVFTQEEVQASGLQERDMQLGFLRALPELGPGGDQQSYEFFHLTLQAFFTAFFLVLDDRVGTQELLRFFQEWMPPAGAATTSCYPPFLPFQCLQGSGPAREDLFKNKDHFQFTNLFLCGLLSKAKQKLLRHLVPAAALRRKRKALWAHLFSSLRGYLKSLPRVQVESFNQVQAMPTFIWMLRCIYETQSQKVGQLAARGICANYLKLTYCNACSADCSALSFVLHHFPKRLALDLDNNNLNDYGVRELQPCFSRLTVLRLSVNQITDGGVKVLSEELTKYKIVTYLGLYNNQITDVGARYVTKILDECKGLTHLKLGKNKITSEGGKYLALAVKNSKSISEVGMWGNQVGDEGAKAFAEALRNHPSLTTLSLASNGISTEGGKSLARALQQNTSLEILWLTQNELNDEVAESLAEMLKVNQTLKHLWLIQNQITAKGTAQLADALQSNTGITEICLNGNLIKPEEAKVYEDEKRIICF", "assay": "SAR analysis of compounds that inhibit NOD1 - Set 3. [Related pubchem assays (depositor defined):AID1566, AID1575, AID1578, AID1849, AID1852, AID2333, AID2335, AID2466]", "type": "functional"}, "[10]": {"system": "HEK293", "assay": "cells", "conditions": "Homo sapiens"}, "[11]": {"target": "Nucleotide-binding oligomerization domain-containing protein 2 (Homo sapiens, UniProt Q9HC29)", "sequence (Q9HC29 whole entry, the tested form may be a part)": "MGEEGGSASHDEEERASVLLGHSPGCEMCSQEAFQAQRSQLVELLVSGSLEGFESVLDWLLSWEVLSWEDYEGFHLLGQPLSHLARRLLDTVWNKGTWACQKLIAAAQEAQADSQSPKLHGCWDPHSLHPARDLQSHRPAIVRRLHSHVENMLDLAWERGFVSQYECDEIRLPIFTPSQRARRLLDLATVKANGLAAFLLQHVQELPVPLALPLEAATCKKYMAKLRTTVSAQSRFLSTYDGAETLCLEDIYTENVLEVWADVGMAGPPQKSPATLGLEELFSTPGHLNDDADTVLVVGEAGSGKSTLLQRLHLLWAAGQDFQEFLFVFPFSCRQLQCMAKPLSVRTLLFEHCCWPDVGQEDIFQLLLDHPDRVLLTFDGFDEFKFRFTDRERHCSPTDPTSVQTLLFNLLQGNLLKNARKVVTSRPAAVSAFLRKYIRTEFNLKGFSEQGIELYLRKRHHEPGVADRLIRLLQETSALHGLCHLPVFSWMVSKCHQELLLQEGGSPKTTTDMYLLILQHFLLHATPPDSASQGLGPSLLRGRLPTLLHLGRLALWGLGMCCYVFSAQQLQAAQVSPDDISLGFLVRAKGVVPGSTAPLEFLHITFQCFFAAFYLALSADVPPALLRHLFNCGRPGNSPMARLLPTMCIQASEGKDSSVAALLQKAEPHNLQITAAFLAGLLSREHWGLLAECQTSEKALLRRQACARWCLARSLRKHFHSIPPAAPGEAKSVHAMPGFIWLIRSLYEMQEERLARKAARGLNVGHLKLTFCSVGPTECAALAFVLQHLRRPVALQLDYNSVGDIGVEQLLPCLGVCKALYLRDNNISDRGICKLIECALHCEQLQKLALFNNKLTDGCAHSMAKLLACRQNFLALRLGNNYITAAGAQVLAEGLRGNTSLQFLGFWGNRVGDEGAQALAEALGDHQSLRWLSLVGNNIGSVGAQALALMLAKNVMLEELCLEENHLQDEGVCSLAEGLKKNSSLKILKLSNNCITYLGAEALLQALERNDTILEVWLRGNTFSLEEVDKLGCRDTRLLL", "assay": "NOD2 signaling inhibitors, analog potency, SAR follow-up, cell-based, set 3 (AID 2799)", "type": "functional"}, "[12]": {"target": "T5, Tumor necrosis factor", "assay": "TNFa-triggered NF-kB activation inhibitors, SAR follow-up, cell-based, set 3 (AID 2801)", "type": "functional"}, "[13]": {"target": "T3, Intestinal-type alkaline phosphatase", "assay": "mouse intestinal alkaline phosphatase activators, dose response, biochemical, luminescence, uHTS hits (AID 488783)", "type": "functional"}, "[14]": {"target": "T2, Alkaline phosphatase, tissue-nonspecific isozyme", "assay": "TNAP enzyme activators, dose response, selectivity assay for mouse IAP activator project, biochemical, TNAP isozyme, mouse IAP uHTS hits (AID 488880)", "type": "functional"}, "[15]": {"target": "T1, Intestinal-type alkaline phosphatase", "assay": "activation of human intestinal alkaline phosphatase – biochemical, dose response (AID 488873)", "type": "functional"}}, "note": "Active and inactive are the calls of the source."}
{"smiles": "O=C(O)C1OC(Oc2c(-c3ccc(O)c(O)c3)oc3cc(O)cc(O)c3c2=O)C(O)C(O)C1O", "note": "(stereo not given)", "values": [{"measurement": "IC50", "setting": "[1]", "result": "3.15 µM (active)"}, {"measurement": "IC50", "setting": "[2]", "result": "891 nM (active)"}, {"measurement": "IC50", "setting": "[3]", "result": "9.8 µM (active)"}, {"measurement": "IC50", "setting": "[4]", "result": "> 100 µM (inactive)"}, {"measurement": "IC50", "setting": "[5]", "result": "3.29 µM (active)"}, {"measurement": "IC50", "setting": "[6]", "result": "48.2 µM (active)"}]}
{"smiles": "Nc1cc(NC(=O)c2ccc3ccccc3c2O)ccc1Cl", "values": [{"measurement": "IC50", "setting": "[7]", "result": "> 20 µM (inactive)"}, {"measurement": "IC50", "setting": "[8]", "result": "> 20 µM (inactive)"}, {"measurement": "IC50", "setting": "[9]", "result": "> 20 µM (inactive)"}, {"measurement": "IC50", "setting": "[10]", "result": "> 20 µM (inactive)"}, {"measurement": "IC50", "setting": "[11]", "result": "> 20 µM (inactive)"}, {"measurement": "IC50", "setting": "[12]", "result": "> 20 µM (inactive)"}]}
{"smiles": "O=C1CC(c2ccc(O)c(O)c2)Oc2cc(O)cc(O)c21", "note": "(stereo not given)", "values": [{"measurement": "EC50", "setting": "[13]", "result": "54.1 µM (active)"}, {"measurement": "EC50", "setting": "[14]", "result": "81.8 µM (active)"}, {"measurement": "EC50", "setting": "[15]", "result": "50.4 µM (active)"}]}
